# Experimental data: patent US8697694B2, “Substituted pyridine and pyrimidine derivatives and their use in treating viral infections” (priority 2008, dated 2014)
# System: HCV replicon cells
# Assay: Cell-based HCV replicon assay (replicon RNA level by real time PCR, Taqman)
# Conditions: Hepatitis C virus, 72 h, HCV replicon cells, replicon RNA level by real time PCR (Taqman), harvested on day 3; calculated EC90 reported as range class; read-out: EC90 (μM) range
# Summary of the method: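 Readout: ΔCT between NS5B replicon RNA and GAPDH by real-time RT-PCR in lysates harvested on day 3, fitted sigmoidally; EC50 at ΔCT=1, EC90 at ΔCT=3.2. Compounds tested at ten 2-fold dilutions from 25 μM to 1 μM start, 10% FBS, 0.5% DMSO.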
row,Structure (SMILES),EC90
1,Cc1nc(NC2(c3ccccc3)CC2)nc(N[C@@H]2C[C@H](CO)[C@@H](O)[C@H]2O)c1-c1nc2ccccc2s1 [Example 1232],0.5 to 5 µM
2,COc1cccc(C)c1Nc1nc(C)c(-c2nc3ccccc3s2)c(N[C@@H]2C[C@H](CO)[C@@H](O)[C@H]2O)n1 [Example 1233],0.5 to 5 µM
3,Cc1ccc([C@@H](C)Nc2nc(C)c(-c3nc4ccccc4s3)c(N[C@@H]3C[C@H](CO)[C@@H](O)[C@H]3O)n2)cc1 [Example 1234],> 5 µM
4,COc1ccc(Nc2nc(C)c(-c3nc4ccccc4s3)c(N[C@@H]3C[C@H](CO)[C@@H](O)[C@H]3O)n2)c(OC)c1 [Example 1235],0.5 to 5 µM
5,Cc1nc(Nc2ccccc2OC(F)(F)F)nc(N[C@@H]2C[C@H](CO)[C@@H](O)[C@H]2O)c1-c1nc2ccccc2s1 [Example 1236],> 5 µM
6,Cc1nc(Nc2cccc(OC(F)(F)F)c2)nc(N[C@@H]2C[C@H](CO)[C@@H](O)[C@H]2O)c1-c1nc2ccccc2s1 [Example 1237],> 5 µM
7,CCOc1nc(C)cc2cc(-c3c(C)nc(NCC4CC4)nc3N[C@@H]3C[C@H](CO)[C@@H](O)[C@H]3O)oc12 [Example 1238],0.5 to 5 µM
8,COc1nc(C)cc2cc(-c3c(C)nc(NCC4CC4)nc3N[C@@H]3C[C@H](CO)[C@@H](O)[C@H]3O)oc12 [Example 1239],0.5 to 5 µM
9,Cc1nc(NCC2CC2)nc(N[C@@H]2C[C@H](CO)[C@@H](O)C2)c1-c1nc2ccccc2s1 [Example 1240],0.5 to 5 µM
10,COc1cc(CNc2nc(C)c(-c3nc4ccccc4s3)c(N[C@@H]3C[C@H](CO)[C@@H](O)C3)n2)cc(OC)c1 [Example 1241],< 0.5 µM
11,Cc1nc(NCC(C)(F)F)nc(N[C@@H]2C[C@H](CO)[C@@H](O)[C@H]2O)c1-c1nc2ccccc2s1 [Example 1242],0.5 to 5 µM
12,Cc1nc(NCC(C)(C)F)nc(N[C@@H]2C[C@H](CO)[C@@H](O)[C@H]2O)c1-c1nc2ccccc2s1 [Example 1243],0.5 to 5 µM
13,[2H]C([2H])(Nc1nc(C)c(-c2nc3ccccc3s2)c(N[C@@H]2C[C@H](CO)[C@@H](O)[C@H]2O)n1)c1cc(OC)cc(OC)c1 [Example 1244],< 0.5 µM
14,[2H]C([2H])(Nc1nc(C)c(-c2nc3ccccc3s2)c(N[C@@H]2C[C@H](CO)[C@@H](O)[C@H]2O)n1)c1ccccc1 [Example 1245],< 0.5 µM
15,CCOc1nc(C)cc2cc(-c3c(C)nc(NCC(F)(F)F)nc3N[C@@H]3C[C@H](CO)[C@@H](O)[C@H]3O)oc12 [Example 1246],< 0.5 µM
16,Cc1cc2cc(-c3c(C)nc(NCC(F)(F)F)nc3N[C@@H]3C[C@H](CO)[C@@H](O)[C@H]3O)oc2c(OC(C)C)n1 [Example 1247],< 0.5 µM
17,CCOc1nc(C)cc2cc(-c3c(C)nc(NCc4cc(OC)cc(OC)c4)nc3N[C@@H]3C[C@H](CO)[C@@H](O)[C@H]3O)oc12 [Example 1248],0.5 to 5 µM
18,CCOc1nc(C)cc2cc(-c3c(C)nc(NC(C)c4ccc(C)cc4)nc3N[C@@H]3C[C@H](CO)[C@@H](O)[C@H]3O)oc12 (stereo partly drawn) [Example 1249],0.5 to 5 µM
19,[2H]C([2H])(Nc1nc(C)c(-c2nc3ccccc3s2)c(N[C@@H]2C[C@H](CO)[C@@H](O)[C@H]2O)n1)C(F)(F)F [Example 1250],0.5 to 5 µM
20,Cc1nc(NCC2CC2)nc(N[C@@H]2C[C@H](CO)C[C@H]2O)c1-c1nc2ccccc2s1 [Example 1251],0.5 to 5 µM
21,Cc1nc(NCC2CC2)nc(N[C@@H]2C[C@H](CO)[C@@H](O)[C@@H]2O)c1-c1nc2ccccc2s1 [Example 1252],> 5 µM
22,Cc1nc(NCC(F)(F)F)nc(N[C@@H]2C[C@H](CO)[C@@H](O)[C@@H]2O)c1-c1nc2ccccc2s1 [Example 1253],0.5 to 5 µM
23,COCCNc1nc(C#N)c(-c2nc3ccccc3s2)c(N[C@@H]2C[C@H](CO)[C@@H](O)[C@H]2O)n1 [Example 1301],> 5 µM
24,COCCNc1nc(N)c(-c2nc3ccccc3s2)c(N[C@@H]2C[C@H](CO)[C@@H](O)[C@H]2O)n1 [Example 1302],0.5 to 5 µM
25,CCc1cc2cc(-c3c(C)nc(O)nc3N[C@@H]3C[C@H](CO)[C@@H](O)[C@H]3O)oc2cn1 [Example 1303],0.5 to 5 µM
26,Cc1nc(N[C@@H](C)c2ccccc2)nc(N[C@@H]2C[C@H](CO)[C@@H](O)[C@H]2O)c1-c1nc2cnccc2s1 [Example 1305],0.5 to 5 µM
27,COc1cc(OC)cc(C(C)Nc2nc(C)c(-c3nc4cnccc4s3)c(N[C@@H]3C[C@H](CO)[C@@H](O)[C@H]3O)n2)c1 (stereo partly drawn) [Example 1306],< 0.5 µM

row,Structure (SMILES),EC90
1,COc1cc(OC)cc([C@@H](C)Nc2nc(C)c(-c3nc4cnccc4s3)c(N[C@@H]3C[C@H](CO)[C@@H](O)[C@H]3O)n2)c1 [Example 1307],< 0.5 µM
2,Cc1nc(N[C@H](C)C(C)(C)C)nc(N[C@@H]2C[C@H](CO)[C@@H](O)[C@H]2O)c1-c1nc2cnccc2s1 [Example 1308],0.5 to 5 µM
3,Cc1nc(NCc2cc(F)cc(F)c2)nc(N[C@@H]2C[C@H](CO)[C@@H](O)[C@H]2O)c1-c1nc2cnccc2s1 [Example 1309],< 0.5 µM
4,Cc1nc(N[C@@H](C)C(C)(C)C)nc(N[C@@H]2C[C@H](CO)[C@@H](O)[C@H]2O)c1-c1nc2cnccc2s1 [Example 1310],0.5 to 5 µM
5,Cc1nc(N[C@H](C)c2ccc(F)cc2)nc(N[C@@H]2C[C@H](CO)[C@@H](O)[C@H]2O)c1-c1nc2cnccc2s1 [Example 1311],< 0.5 µM
6,Cc1nc(N[C@@H]2CCc3ccccc32)nc(N[C@@H]2C[C@H](CO)[C@@H](O)[C@H]2O)c1-c1nc2cnccc2s1 [Example 1312],0.5 to 5 µM
7,Cc1nc(N(C)Cc2ccccc2)nc(N[C@@H]2C[C@H](CO)[C@@H](O)[C@H]2O)c1-c1nc2cnccc2s1 [Example 1313],0.5 to 5 µM
8,Cc1ccc([C@H](C)Nc2nc(C)c(-c3nc4cnccc4s3)c(N[C@@H]3C[C@H](CO)[C@@H](O)[C@H]3O)n2)cc1 [Example 1314],0.5 to 5 µM
9,Cc1ccc(C2(Nc3nc(C)c(-c4nc5cnccc5s4)c(N[C@@H]4C[C@H](CO)[C@@H](O)[C@H]4O)n3)CC2)cc1 [Example 1315],0.5 to 5 µM
10,CC[C@@H](C)Nc1nc(C)c(-c2nc3cnccc3s2)c(N[C@@H]2C[C@H](CO)[C@@H](O)[C@H]2O)n1 [Example 1316],< 0.5 µM
11,Cc1nc(NCC(C)(C)CO)nc(N[C@@H]2C[C@H](CO)[C@@H](O)[C@H]2O)c1-c1nc2cnccc2s1 [Example 1317],< 0.5 µM
12,Cc1nc(NCC(C)(C)CC2CC2)nc(N[C@@H]2C[C@H](CO)[C@@H](O)[C@H]2O)c1-c1nc2cnccc2s1 [Example 1318],< 0.5 µM
13,Cc1nc(NCC(C)(C)C)nc(N[C@@H]2C[C@H](CO)[C@@H](O)[C@H]2O)c1-c1nc2c(C)nccc2s1 [Example 1319],< 0.5 µM
14,Cc1ccc([C@@H](C)Nc2nc(C)c(-c3nc4c(C)nccc4s3)c(N[C@@H]3C[C@H](CO)[C@@H](O)[C@H]3O)n2)cc1 [Example 1320],< 0.5 µM
15,Cc1nc(NCC(C)(C)C)nc(N[C@@H]2C[C@H](CO)[C@@H](O)[C@H]2O)c1-c1nc2c(s1)CCN(C)C2 [Example 1321],0.5 to 5 µM
16,Cc1nc(NCC(C)(C)C)nc(N[C@@H]2C[C@H](CO)[C@@H](O)[C@H]2O)c1-c1ccc2ccccc2n1 [Example 1322],> 5 µM
17,Cc1ccc([C@@H](C)Nc2nc(C)c(-c3ccc4ccccc4n3)c(N[C@@H]3C[C@H](CO)[C@@H](O)[C@H]3O)n2)cc1 [Example 1323],> 5 µM
18,CCOCCNc1nc(C)c(-c2ccc3ccccc3n2)c(N[C@@H]2C[C@H](CO)[C@@H](O)[C@H]2O)n1 [Example 1324],> 5 µM
19,Cc1nc(N)nc(N[C@@H]2C[C@H](CO)[C@@H](O)[C@H]2O)c1-c1nc2cnccc2s1 [Example 1325],0.5 to 5 µM
20,CNc1nc(C)c(-c2nc3cnccc3s2)c(N[C@@H]2C[C@H](CO)[C@@H](O)[C@H]2O)n1 [Example 1326],< 0.5 µM
21,Cc1nc(NCc2cccs2)nc(N[C@@H]2C[C@H](CN)[C@@H](O)[C@H]2O)c1-c1nc2ccccc2s1 [Example 1328],< 0.5 µM
22,Cc1nc(NCc2cccs2)nc(N[C@@H]2C[C@H](CNS(C)(=O)=O)[C@@H](O)[C@H]2O)c1-c1nc2ccccc2s1 [Example 1330],< 0.5 µM
23,CC(=O)NC[C@H]1C[C@@H](Nc2nc(NCc3cccs3)nc(C)c2-c2nc3ccccc3s2)[C@H](O)[C@@H]1O [Example 1331],< 0.5 µM
24,CCc1nccc2sc(-c3c(C)nc(NCC4CC4)nc3N[C@@H]3C[C@H](CO)[C@@H](O)[C@H]3O)nc12 [Example 1333],< 0.5 µM
25,CCc1nccc2sc(-c3c(C)nc(NCC(C)(C)C)nc3N[C@@H]3C[C@H](CO)[C@@H](O)[C@H]3O)nc12 [Example 1334],< 0.5 µM
26,CCc1nccc2sc(-c3c(C)nc(N[C@H](C)c4ccc(C)cc4)nc3N[C@@H]3C[C@H](CO)[C@@H](O)[C@H]3O)nc12 [Example 1335],< 0.5 µM

# Same assay, conditions: Hepatitis C virus, 72 h, HCV replicon cells, replicon RNA level by real time PCR, harvested day 3; read-out: EC90 (μM) range
row,Structure (SMILES),EC90
1,Cc1nc(NCC2CC2)nc(N[C@@H]2C[C@H](CO)[C@@H](O)[C@H]2O)c1-c1nc2c(OCC3CC3)nccc2s1 [Example 1338],< 0.5 µM
2,Cc1ccc([C@@H](C)Nc2nc(C)c(-c3nc4c(OCC5CC5)nccc4s3)c(N[C@@H]3C[C@H](CO)[C@@H](O)[C@H]3O)n2)cc1 [Example 1339],< 0.5 µM
3,CCc1nccc2sc(-c3c(C)nc(NCC(F)(F)F)nc3N[C@@H]3C[C@H](CO)[C@@H](O)[C@H]3O)nc12 [Example 1340],< 0.5 µM
4,CO[C@@H]1[C@H](O)[C@@H](CO)C[C@H]1Nc1nc(NCC(F)(F)F)nc(C)c1-c1nc2ccccc2s1 [Example 1341],< 0.5 µM
5,CCOc1nccc2sc(-c3c(C)nc(N[C@H](C)c4ccc(C)cc4)nc3N[C@@H]3C[C@H](CO)[C@@H](O)[C@H]3O)nc12 [Example 1343],< 0.5 µM
6,CCCc1nccc2sc(-c3c(C)nc(N[C@H](C)C4CC4)nc3N[C@@H]3C[C@H](CO)[C@@H](O)[C@H]3O)nc12 [Example 1346],< 0.5 µM
7,CCOc1cc2cc(-c3c(C)nc(NCC4CC4)nc3N[C@@H]3C[C@H](CNS(C)(=O)=O)[C@@H](O)[C@H]3O)oc2c(C)n1 [Example 1347],< 0.5 µM
